Results published in patent US8129355B2, “Ketone ligands for modulating the expression of exogenous genes via an ecdysone receptor complex” (priority 2002, dated 2012).

Assays:
[1] = target: T1, Gal4 DBD/AaEcR (DEF) with VP16-βRXR-E (Aedes aegypti, UniProt P49880); assay: cell-based; type: cell-based; conditions: for LC50 (half-maximal ligand concentration for reporter induction): average, dose response 33 μM to 0.01 μM, three-parameter logistic model, read-out: AA_3T3 LC50; for AA_3T3 Rel Max FI: maximum fold induction at any concentration relative to that of GS-E ligand; for Fold Induction Average, AA_3T3 Assay (33 μM): single dose 33 μM, RLU ligand treated / RLU DMSO treated cells
T1 construct: The wildtype D, E, and F domains from mosquito Aedes aegypti EcR (“AaEcR-DEF”); expressed in transfected cells; host or cells: 3T3 cells, transient transfection (Superfect)
Procedure: 3T3 cells were trypsinized and plated at 2.5×10^3 cells/well on a 96-well plate. After incubation for 24 h at 37° C. under 5% CO2, cells were transfected with the Gal4 DBD/AaEcR (DEF) gene expression cassette and the reporter plasmid, pFRLuc, containing a 5XGAL4 response element and the firefly luciferase gene in serum free media using Superfect (Qiagen). After transfection for 4 h at 37° C., the cells were treated with ligand in serum media. […] Single dose testing was performed at 33 μM.

[2] = target: T2, GAL4 DBD (1-147)-CfEcR(DEF)/VP16AD-βRXREF-LmUSPEF (Choristoneura fumiferana, UniProt O77240); assay: 27-63 assay: luciferase reporter gene expression in stable CHO cell clone 27-63; conditions: for 27-63 Rel Max FI: maximum fold induction at any concentration relative to that of GS-E ligand; for CC50: read-out: 27-63 LC50, average, dose response, three-parameter logistic model
T2 sequence (O77240 191-513): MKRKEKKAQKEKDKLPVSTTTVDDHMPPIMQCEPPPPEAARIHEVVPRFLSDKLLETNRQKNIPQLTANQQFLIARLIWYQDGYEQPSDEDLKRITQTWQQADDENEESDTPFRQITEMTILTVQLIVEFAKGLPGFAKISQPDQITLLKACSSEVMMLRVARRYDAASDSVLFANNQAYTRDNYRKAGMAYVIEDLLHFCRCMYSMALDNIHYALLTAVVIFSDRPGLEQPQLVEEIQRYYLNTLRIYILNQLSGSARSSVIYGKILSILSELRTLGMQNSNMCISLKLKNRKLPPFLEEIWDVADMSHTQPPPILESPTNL
T2 sequence (P28702 296-455 partner limits assumed): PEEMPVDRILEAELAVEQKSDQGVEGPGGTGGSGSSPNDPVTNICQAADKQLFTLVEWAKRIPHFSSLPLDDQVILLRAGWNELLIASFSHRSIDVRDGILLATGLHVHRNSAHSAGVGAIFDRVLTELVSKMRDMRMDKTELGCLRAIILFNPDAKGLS
Excerpt: GAL4 DBD (1-147)-CfEcR(DEF)/VP16AD-βRXREF-LmUSPEF: The wild-type D, E, and F domains from spruce budworm Choristoneura fumiferana EcR (“CfEcR-DEF”; SEQ ID NO: 1) were fused to a GAL4 DNA binding domain (“Gal4 DBD1-147”; nucleotides 31 to 471 of SEQ ID NO: 2) and placed under the control of a phosphoglycerate kinase promoter (“PGK”; SEQ ID NO: 3). Helices 1 through 8 of the EF domains from Homo sapiens RXRβ and helices 9 through 12 of the EF domains of Locusta migratoria Ultraspiracle Protein (“HsRXRβ-EF-LmUSP-EF”; SEQ ID NO: 4) were fused to the transactivation domain from VP16 (“VP16AD”; SEQ ID NO: 5) and placed under the control of an elongation factor-1α promoter (“EF-1α”; SEQ ID NO: 6). Five consensus GAL4 response element binding sites (“5XGAL4RE”; comprising 5 copies of a GAL4RE comprising SEQ ID NO: 7) were fused to a synthetic TATA minimal promoter (SEQ ID NO: 8) and placed upstream of the luciferase reporter gene (SEQ ID NO: 9).
CHO cells were transiently transfected with transcription cassettes for GAL4 DBD (1-147) CfEcR(DEF) and for VP16AD βRXREF-LmUSPEF controlled by ubiquitously active cellular promoters (PGK and EF-1α, respectively) on a single plasmid. Stably transfected cells were selected by Zeocin resistance. Individually isolated CHO cell clones were transiently transfected with a GAL4 RE-luciferase reporter (pFR Luc). 27-63 clone was selected using Hygromycin.
Cells were trypsinized and diluted to a concentration of 2.5×10^4 cells mL. 100 μL of cell suspension was placed in each well of a 96 well plate and incubated at 37° C. under 5% CO2 for 24 h. Ligand stock solutions were prepared in DMSO and diluted 300 fold for all treatments. Dose response testing consisted of 8 concentrations ranging from 33 μM to 0.01 μM.
Luciferase reporter gene expression was measured 48 h after cell treatment using Bright-Glo™ Luciferase Assay System from Promega (E2650). Luminescence was detected at room temperature using a Dynex MLX microtiter plate luminometer.
Fold inductions were calculated from single dose testing by dividing relative light units (RLU) in ligand treated cells by RLU in DMSO treated cells. BC50s were calculated from dose response data using a three-parameter logistic model.

T1 sequence (P28704 286-520 A311G/G315S/G445S/I449V): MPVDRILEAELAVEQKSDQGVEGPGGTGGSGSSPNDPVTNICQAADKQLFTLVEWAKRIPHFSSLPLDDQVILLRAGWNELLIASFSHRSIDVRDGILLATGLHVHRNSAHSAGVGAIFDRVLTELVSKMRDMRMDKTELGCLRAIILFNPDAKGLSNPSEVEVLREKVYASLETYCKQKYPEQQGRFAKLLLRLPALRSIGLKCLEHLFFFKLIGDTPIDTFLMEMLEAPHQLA
T1 sequence (P49880 405-776): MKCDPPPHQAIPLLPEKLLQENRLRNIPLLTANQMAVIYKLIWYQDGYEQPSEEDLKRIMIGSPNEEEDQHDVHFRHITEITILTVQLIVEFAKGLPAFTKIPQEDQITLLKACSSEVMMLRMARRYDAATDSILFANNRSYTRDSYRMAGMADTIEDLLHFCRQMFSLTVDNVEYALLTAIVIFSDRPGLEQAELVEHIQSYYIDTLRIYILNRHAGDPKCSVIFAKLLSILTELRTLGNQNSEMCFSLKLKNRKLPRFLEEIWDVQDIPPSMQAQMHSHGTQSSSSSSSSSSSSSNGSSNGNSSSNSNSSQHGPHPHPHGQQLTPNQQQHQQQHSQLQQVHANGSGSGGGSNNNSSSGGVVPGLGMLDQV

CCc1ccc(C(=O)NC2(C(=O)c3cc(C)cc(C)c3)CCCC2)cc1 [Example 138]
LC50 (half-maximal ligand concentration for reporter induction) [1]: ~4.7 µM
AA_3T3 Rel Max FI [1]: 0.22
Fold Induction Average, AA_3T3 Assay (33 μM) [1]: 2134
27-63 Rel Max FI [2]: 0.75
CC50 [2]: 3.59 µM

COc1cccc(C(=O)NC2(C(=O)c3cc(C)cc(C)c3)CCCC2)c1 [Example 137]
LC50 (half-maximal ligand concentration for reporter induction) [1]: > 33 µM
AA_3T3 Rel Max FI [1]: 0.01
Fold Induction Average, AA_3T3 Assay (33 μM) [1]: 115
27-63 Rel Max FI [2]: 0.21
CC50 [2]: > 33 µM
